Source: patent US20210386754A1, “COMPOSITIONS AND METHODS FOR TREATING ATHEROSCLEROTIC VASCULAR DISEASE” (AUGUSTA UNIVERSITY RESEARCH INSTITUTE, INC., priority 2020, published 2021)
Entries after “also recorded” stand apart in the source; their conditions may differ.

How the values were obtained:
THP-1 macrophages = test: Foam cell formation / nLDL macropinocytosis, Nile Red FACS; assay type: cell-based, human; conditions: EIPA 25 μM, 1 hr pre-incubation; nLDL 50 μg/ml
Procedure: Flow cytometry experiments were performed using the BD Accuri C6 flow cytometer using a standard protocol.
(§1) Foam cell formation: THP-1 macrophages or bone marrow-derived macrophages were treated with vehicle, known macropinocytosis stimulators (PMA 1 μM, M-CSF 100 ng/mL or PDGF 200 ng/mL)+/− macropinocytosis inhibitors (imipramine 10 μM or EIPA 25 μM; 1 hour pre-incubation) in the presence of nLDL, ox-LDL, or ac-LDL ([…]) for 24 hours. Cells were fixed in 2% PFA and stained with Nile Red (50 ng/mL) for 7 min. Fluorescence intensity was measured using the FL3 channel for Nile Red (Ex: 488 nm, Em: 670 nm).

[1] = tested on: macrophages (SR-mediated ox-LDL uptake); test: SR-mediated ox-LDL uptake; assay type: cell-based; conditions: EIPA 25 μM, 1 hr; ox-LDL 50 μg/ml
Procedure: as §1

RAW 264.7 macrophages [2] = test: Cell viability assay, LIVE/DEAD Fixable Far Red dye; assay type: cell-based; conditions: EIPA 25 μM, 1 hr, then PMA 4 hours
Procedure: Cell viability assay: RAW 264.7 macrophages were plated in 24 well plates at a density of 1×10^6 cells/mL. Twenty four hours later, macrophages were pre-incubated with vehicle or EIPA (25 μM, 1 hr) and treated with PMA (1 μM, 4 hrs). Cells were fixed in 2% PFA, resuspended in FACS buffer (2% BSA and 0.01% sodium azide in PBS), and stained with the LIVE/DEAD™ Fixable Far Red dye to identify live cells. Fluorescence intensity was measured using the FL4 channel (Ex: 650 nm, Em: 660 nm).

[3] = tested on: hypercholesterolemic mice (PCSK9-AAV-mediated LDLR knockdown); test: Atherosclerosis model: PCSK9-AAV, partial LCA ligation, Western diet; assay type: in vivo, mouse; conditions: for inhibition of atherosclerotic lesion area (ORO positive area, LCA): continuous infusion via subcutaneous osmotic pump
From the text: Mice were given a single injection of AAV-PCSK9 (1×1011 VG) and fed a Western diet (Envigo, TD.88137, Indianapolis, Ind.). One week after AAV-PCSK9 injection, mice underwent partial carotid ligation surgery as previously described (67) and Western diet was continued for another 3 weeks. In separate experiments, mice were given a single injection of AAV-PCSK9 (1×1011 VG) and fed a Western diet for 16 weeks. Mice were anesthetized (isoflurane inhalation, 3%) and exsanguinated. Blood was collected from left ventricle using a heparinized syringe fitted with a 21 G needle. Aortic arch and carotid arteries were collected, and gross macroscopic images were acquired. For molecular histology studies, carotids and aortic arch were fixed in 4% paraformaldehyde (PFA), embedded in OCT compound and stored at −80° C. until use.
ORO staining: Atherosclerosis development in carotid arteries and whole aorta were studied initially by gross imaging followed by Oil Red O (ORO) staining and plaque quantification. Briefly, the entire aorta was isolated, cleaned of peri-adventitial fat, fixed and imaged on the surface of black silicone-coated dissection dishes. Left carotid arteries were embedded in OCT and 10 μm thick cross-sections were prepared. The arteries were divided into 3 regions based on their distance from the aortic arch: proximal (0-400 μm), middle (2,000-2,400 μm) and distal (4,000-4,400 μm). Frozen sections and whole aortas were then stained with ORO solution (2%) and images were taken using light microscope equipped with a camera under 20× and 1.6× objective lens. The total area, lumen area and ORO positive area were measured for six sections/anatomical position per mouse using Image J software. The ratio of ORO positive area to arterial area is represented as plaque area. Plasma total cholesterol concentrations were determined by the Amplex™ Red Cholesterol Assay Kit (ThermoFisher, Rockford, Ill.). Plasma lipid profiles were obtained by column fractionation and measurements of fraction cholesterol content.
Hematoxylin and Eosin (H&E) or Masson's trichrome staining: Frozen sections were also used for Hematoxylin and Eosin (H&E) or Masson's trichrome staining following standard procedures to evaluate the lesion size and collagen content, respectively.
Orcein and Martius Scarlet Blue (OMSB) staining: OMSB was used for qualitative and quantitative analysis of atherosclerotic plaques as previously described. Briefly, left carotid arteries were dissected out, fixed in 4% buffered paraformaldehyde (pH=7.4) for at least 48 hr, and then routinely processed and embedded in paraffin (tissue processor TP1020; Leica, Wetzlar, Germany). Cross sections were cut every 5 m along the artery (starting from the proximal end) and mounted serially on silanized slides. Sections were stained and mounted automatically using Leica ST5010 Autostainer XL combined with Leica CV5030 Glass Coverslip. Deparaffinized sections through xylene and ethanol, and rehydrate to water. Postfix sections in Bouin's fixative at 56° C. for 1 hour, then rinse for 10 min in tap water to remove traces of picric acid. Stain with orcein for 20 min at 56° C. Differentiate in acidic alcohol for 2 min and then transfer to 96% ethanol for 30 s. Stain with martius yellow for 3 min and rinse in distilled water (2×2 min). Stain with crystal scarlet for 10 min. Differentiate with phosphotungstic acid 2 min and transfer to distilled water (for about 10 s). Stain with methyl blue 5 min. Rinse in acetic acid water 3 min, dehydrate through ethanol and carbol-xylene, clear in xylene, and mount in DPX or other resin. Staining of collagen with picrosirius red. The sections were examined and digital images of stained arteries were recorded using Olympus dotSlide system (Olympus, Tokyo, Japan). Segmentation algorithm allowed to distinguish vessel wall area, lumen area, plaque area, and area of the plaque occupied by collagen. The results were presented as areas of identified components in μm2. […]

[4] = tested on: human aortic endothelial cells; test: qRT-PCR of SR-B1 mRNA expression; assay type: cell-based; conditions: EIPA 25 μM, 24 hr
ApoE-/- mice = test: Atherosclerosis model: ApoE-/- mice, partial LCA ligation, Western diet; assay type: in vivo, mouse; conditions: male ApoE-/- mice, Western diet 4 weeks, EIPA via subcutaneously implanted minipump
RAW 264.7 macrophages [5] = test: Measurement of cholesterol efflux (DiI); assay type: cell-based; conditions: EIPA 25 μM, 1 hour
Procedure: RAW 264.7 macrophages were pretreated with vehicle or EIPA (25 μM, 1 hour) and incubated with PMA (1 μM) in the presence or absence of Dil-LDL (50 μg/mL) at 37° C. for 24 h. Cells were washed 3 times with PBS, RPMI-1640 medium containing 1% FBS was added and cells incubated for another 24 hours. Finally, the medium was collected and Dil fluorescence intensity in the media was measured using a CLARIOstar multi-mode microplate reader.

[6] = EIPA vs vehicle, WT and CD36-/-/SR-A-/- mice
[7] = EIPA vs vehicle, WT and CD36-/-/SR-A-/- mice, LCA

SMILES: CCN(c1nc(N)c(C(=O)N=C(N)N)nc1Cl)C(C)C [EIPA, 5-(N-ethyl-N-isopropyl)amiloride]
- PMA-induced nLDL macropinocytosis (THP-1 macrophages): blocks macrophage macropinocytosis; also recorded: inhibits
- SR-mediated ox-LDL uptake [1]: without inhibiting; also recorded: does not inhibit
- Cytotoxicity (LIVE/DEAD Fixable Cell Stain) (RAW 264.7 macrophages [2]): no cell death
- blood pressure (systolic) [3, 6]: not different
- body weight [3, 6]: not different
- CD68+ macrophage staining [3, 7]: significantly decreased
- Collagen content (Masson's trichrome) [3, 7]: significantly decreased
- atherosclerotic lesion area (H&E) [3, 7]: significantly decreased
- atherosclerosis (plaque area, OMSB, LCA) ([3]; female WT mice, PCSK9-AAV (LDLR-deficient), Western diet 4 weeks, EIPA via subcutaneously implanted minipump): inhibited atherosclerosis; also recorded: attenuates
- inhibition of atherosclerotic lesion area (ORO positive area, LCA) ([3]; male CD36-/-/SR-A-/- mice, Western diet 4 weeks): ~80%
- inhibition of atherosclerotic lesion area (ORO positive area, LCA) ([3]; male WT mice, Western diet 4 weeks): ~80%
- atherosclerosis development ([3]; wild-type and SR knockout mice): reduces
- SR-B1 mRNA levels [4]: does not increase
- atherosclerosis (ORO positive area, LCA) (ApoE-/- mice): inhibited atherosclerosis; also recorded: attenuates
- cholesterol efflux in lipid-laden macrophages (RAW 264.7 macrophages [5]): does not promote
